Reference: US20110217293A1, “Uses of morelloflavone” (priority 2008, published 2011)
pIC50: −log10 of the molar value. “Also recorded” adds a separate entry of the source. Like-named read-outs stand apart in the source and are kept apart here.

How the values were obtained:
[1] = system: vascular smooth muscle cells; assay: Invasion assay (modified Boyden chamber); format: cell-based, mouse; conditions: 1 mM morelloflavone, 8-hour incubation
Experimental: (§1) Mouse vascular smooth muscle cells, isolated as described (13), were maintained in 231 media (Cascade Biologics, Portland, Oreg.) supplemented with SMGS (Cascade Biologics) in a humidified incubator at 37° C. with 5% CO2. Cells from passages 4-9 were used in all experiments. All experiments were performed in subconfluent, unsynchronized cells growing in SMGS except for the lamellipodium formation assay.
The lower chambers of the ChemoTx® Disposable Chemotaxis System (NeuroProbe, Gaithersburg, Md.) were filled with […] of SMGS diluted in 231 medium at the appropriate concentrations (0-10%). A filter membrane ([…] pore size) was positioned over the lower wells, and 1×10^4 vascular smooth muscle cells suspended in […] 231 medium (without morelloflavone) were placed on the test sites within circular hydrophobic masks on the upper side of the filter plate (n=5 each). […] After additional 8-hour incubation, cells on the upper surface of the membrane, i.e., cells that had not migrated, were scraped off by Q-tips, and cells that had migrated to the lower surface were fixed and stained by hematoxylin solution and counted. Migrated cell 6 numbers were calculated as the number of cells migrated per 8.0 mm^2 test site surface area.

[2] = molecular target: T1, sPLA2-IIA (Homo sapiens, UniProt P14555); assay: sPLA2 enzyme activity assay, Group IIA; format: biochemical; conditions: recombinant human sPLA2-IIA, data not shown
T1 sequence (P14555 21-144): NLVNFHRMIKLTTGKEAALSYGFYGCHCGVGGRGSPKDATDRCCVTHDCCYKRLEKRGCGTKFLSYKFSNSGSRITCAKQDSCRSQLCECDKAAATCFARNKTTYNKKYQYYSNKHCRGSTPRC
Experimental: (§2) Recombinant human sPLA2 isoforms, Group IB, Group IIA, Group V, and Lp-PLA2 were obtained from R&D Systems and Cayman Chemical Co. sPLA2 enzyme activities in the presence of various concentrations of morelloflavone or other inhibitors were determined using a commercially available assay system according to the manufacturer's instructions (Cayman Chemical Co.). Thioetheramide-1-palmitylthio-2-palmitoylamido-1,2-dideoxy-sn-glycero-3-phosphorylcholine (T-PC) and methyl arachidonyl fluorophosphonate (MAFP) were used as inhibitors of sPLA2 (IB, IIA, and V) and Lp-PLA2, respectively, per manufacturers' instructions.

[3] = system: vascular smooth muscle cells; assay: MTT cell death (viability) assay; format: cell-based, mouse; parameters: dose or concentration left out as unconfirmed; conditions: 48 hrs
Experimental: Mouse vascular smooth muscle cells, isolated as described (13), were maintained in 231 media (Cascade Biologics, Portland, Oreg.) supplemented with SMGS (Cascade Biologics) in a humidified incubator at 37° C. with 5% CO2. Cells from passages 4-9 were used in all experiments. All experiments were performed in subconfluent, unsynchronized cells growing in SMGS except for the lamellipodium formation assay. Vascular smooth muscle cells were plated at 1×10^4 cells per well in 96-well culture plates and incubated overnight. The cells were treated with various concentrations of morelloflavone for 48 hrs. Then, the cells were exposed to MTT labeling reagent at 10 mg/mL for 4 hrs and solubilized in 0.01 N HCl containing 10% SDS overnight. Formed formazan was measured via spectrophotometry at 600 nm.

[4] = molecular target: sPLA2-IB (Homo sapiens, UniProt P04054); assay: sPLA2 enzyme activity assay, Group IB; format: biochemical; conditions: recombinant human sPLA2-IB, data not shown
Experimental: as §2

[5] = system: Cdc42; assay: GTPase activation assay, Cdc42; format: cell-based, mouse; parameters: dose or concentration left out as unconfirmed
Experimental: To assess the phosphorlyation status of ERK, […] of whole cell lysates was loaded onto SDS-PAGE, and Western blot analysis was done using anti-p-ERK (Santa Cruz; E-4; sc-7383) and anti-ERK (Santa Cruz; K-23; sc-94) antibodies. To detect active RhoA, Rac1 and Cdc42, generated GST-tagged RhoA binding domain of Rhotekin protein (GST-Rhotekin-RBD) and GST-tagged p21-binding domain of p21-activated kinase 1 (PAK1)(GST-PAK1-PBD) were first generated. Briefly, E. coli BL21 cells transformed with pGEX4T-PAK1-PBD or pGEX4T-Rh,otekin-RBD were grown at 37° C. and expression of recombinant protein was induced by addition of 0.1 mM IPTG for 3 hours. Cells were resuspended in lysis buffer (50 mM Tris-HCl, pH 8.0, 10% glycerol, 20% sucrose, 2 mM DTT, 1 mg/ml leupeptin, 1 mg/ml pepstatin, and 1 mg/ml aprotinin), sonicated, and centrifuged at 4° C. for 30 min at 45,000 g. The supernatant was incubated with glutathione sepharose 4B beads (GE-Amersham, Piscataway, N.J.) for 1 hour at 4° C., and then washed 3 times in lysis buffer. Using these GST-proteins, GTPase activation assays were performed as described. […]

[6] = system: vascular smooth muscle cells; assay: Cell cycle analysis by flow cytometry; format: cell-based, mouse; conditions: concentrations up to 10 mM (10 μM), 24 hr
Experimental: as §1
Vascular smooth muscle cells (1×106) were seeded onto 10-cm dishes and treated with various concentrations of morelloflavone. After 24 hr incubation, the cells were fixed with 70% ethanol at 4° C. overnight, treated with RNAse in PBS, stained with propidium iodide (Sigma, St. Louis, Mo.), and subjected to flow cytometric DNA content analysis using Epics XL (Beckman-Coulter, Miami, Fla.). The percentages of cells in G1, S, and G2/M phases were determined using Multi-cycle system software (Phoenix Flow System, San Diego, Calif.).

[7] = system: plasma lipid peroxidation; assay: Thiobarbituric acid reactive substances (TBARS) assay; format: in vivo, mouse; conditions: treated Ldlr−/−Apobec1−/− mice, N=12
Experimental: EDTA-added mouse plasma was stored at −80° C. until the assay. The assay was performed using a commercially available kit according to the manufacturer's instructions. The degree of plasma lipid peroxidation was expressed in terms of equivalent malondialdehyde (MDA) concentration (Cayman Chemical Co., Ann Arbor, Mich.).

Chain of sPLA2-IB (P04054 23-148): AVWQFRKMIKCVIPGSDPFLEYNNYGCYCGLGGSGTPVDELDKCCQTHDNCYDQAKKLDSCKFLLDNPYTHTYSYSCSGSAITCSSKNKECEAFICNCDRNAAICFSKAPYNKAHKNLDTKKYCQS

O=C1c2c(O)cc(O)cc2O[C@H](c2ccc(O)cc2)[C@H]1c1c(O)cc(O)c2c(=O)cc(-c3ccc(O)c(O)c3)oc12 [morelloflavone, 5,7, 4′, 5″, 7″, 3″, 4″-heptahydroxy-[3,8″]-flavonylflavanone]
effect on vascular smooth muscle cell migration/invasion towards SMGS [1]: significantly blocked; also recorded: blocks
pIC50 [2]: < 5.00
cytotoxicity / cell survival (MTT) [3]: no cytotoxicity; also recorded: does not affect; also recorded: not cytotoxic; also recorded: does not induce cytotoxicity
pIC50 [4]: < 5.00
activation of Cdc42 [5]: blocks the activation
activation of Cdc42 ([5]; concentration not given): no significant effect; also recorded: without affecting
effect on cell cycle progression [6]: did not significantly affect; also recorded: does not affect cell cycle progression
Thiobarbituric acid reactive substances concentration (plasma) [7]: 6.33 ± 1.47 µM
